In patent US20110144079A1, “ANTIMICROBIAL SYSTEM” (priority 2008, published 2011):

Columns and labels:
[1] = system: MRSA; assay: Broth microdilution MIC/MBC; format: cell-based, methicillin-resistant S. aureus; details: Staphylococcus aureus
Procedure: (§1) Broth microdilution tests were performed according to NCCLS guidelines. Serial two-fold dilutions of each imidazolium salt (from an original working solution which had been 0.22 μm sterile filtered) in Mueller-Hinton Broth (MHB) (100 μl) were prepared in 96-well micro-titre plates over the range 0.0000625-1% w/v. The inoculum to be tested was prepared by adjusting the turbidity of an actively overnight growing broth culture in MHB to an optical density at 550 nm equivalent to 1×10^8 CFU/ml. The suspension was further diluted to provide a final inoculum density of 2×10^5 CFU/ml in MHB as verified by total viable count. The inoculum to be tested (100 μl, 2×10^5 CFU ml^−1) was added to each well of the microdilution trays which were incubated aerobically for 24 h at 37° C. Positive and negative growth controls were included in every assay (6 replicates). After determining the MICs, minimum bactericidal concentrations (MBCs) were determined by spreading 20 μl of suspension from wells showing no growth onto MHA plates, which were then incubated for 24 h and examined for 99.9% killing.

[2] = system: E. coli PIII; assay: Broth microdilution MIC; format: cell-based; details: Escherichia coli
Procedure: as §1

[3] = system: B. cenocepacia J2315; assay: Biofilm assay (Calgary Biofilm Device), MBEC; format: cell-based; details: B. cenocepacia J2315 24 h biofilm, 24 h challenge
Procedure: (§2) Biofilms of each test organism were grown in the Calgary Biofilm Device (commercially available as the MBEC Assay™ for Physiology & Genetics, Innovotech Inc., Edmonton, Alberta, Canada). The device, a micro-titre plated based assay, consists of two parts; a microtitre plate containing the inoculated test medium and a polystyrene lid with 96 identical pegs on which the microbial biofilm forms under gyrorotary incubation. The biofilm assay was conducted according to the MBEC™ assay protocol as supplied by the manufacturer, with slight modifications. Inocula of each test organism were prepared in MHB as described above and adjusted to provide a final inoculum density of ˜10^7 CFU ml^−1 (as confirmed by viable count). 150 μl of the inoculated media was transferred to each well of the 96-well microtitre plate and the assay plate lid, bearing 96 pegs was placed into the microtitre plate. The MBEC assay plates were placed in a gyrorotary incubator (37° C., 95% relative humidity) for 24 h to permit growth and comparison of 24 h biofilms of each test strain. Positive and negative growth controls were included in each plate (6 replicates). Initial and 24 h planktonic viable counts were measured, as were 24 h biofilm counts, expressed as CFU peg^−1, according to manufacturers instructions. After 24 h, the peg lid of the MBEC assay plate was gently rinsed three times. After rinsing, the peg lid of the MBEC assay was transferred to a ‘challenge’ plate. Serial dilutions of each imidazolium salt were prepared in 200 μl of MHB containing various concentrations of IL in each well. Positive growth control and sterility control were included in each assay plate. […] Biofilms were dislodged into recovery media by sonication for 5 minutes and the peg lid discarded. The recovery plate is incubated overnight and visually checked after 24 h for turbidity. In addition, optical density measurements for each plate were recorded at 550 nm. Clear wells were taken as evidence of biofilm eradication and the MBEC value was assigned as the lowest concentration at which no growth was observed after 24 h incubation. Plates were incubated for a further 24 h to confirm biofilm eradication concentrations.

[4] = system: C. tropicalis NCTC 7393; assay: Biofilm assay (Calgary Biofilm Device), MBEC; format: cell-based; details: C. tropicalis NCTC 7393 24 h biofilm, 24 h challenge
Procedure: as §2

[5] = system: E-MRSA 15; assay: Biofilm assay (Calgary Biofilm Device), MBEC; format: cell-based; details: E-MRSA 15 24 h biofilm, 24 h challenge
Procedure: as §2

[6] = system: E. coli PIII; assay: Biofilm assay (Calgary Biofilm Device), MBEC; format: cell-based
Procedure: as §2

[7] = system: K. aerogenes NCTC 7427; assay: Biofilm assay (Calgary Biofilm Device), MBEC; format: cell-based; details: K. aerogenes NCTC 7427 24 h biofilm, 24 h challenge
Procedure: as §2

[8] = system: P. aeruginosa PA01; assay: Biofilm assay (Calgary Biofilm Device), MBEC; format: cell-based
Procedure: as §2

[9] = system: P. mirabilis NCTC 12442; assay: Biofilm assay (Calgary Biofilm Device), MBEC; format: cell-based; details: P. mirabilis NCTC 12442 24 h biofilm, 24 h challenge
Procedure: as §2

[10] = system: S. aureus ATCC 29213; assay: Biofilm assay (Calgary Biofilm Device), MBEC; format: cell-based; details: S. aureus ATCC 29213 24 h biofilm, 24 h challenge
Procedure: as §2

[11] = system: S. epidermidis ATCC 35984; assay: Biofilm assay (Calgary Biofilm Device), MBEC; format: cell-based
Procedure: as §2

[12] = system: MRSA; assay: Biofilm assay (Calgary Biofilm Device), MBEC; format: cell-based, methicillin-resistant S. aureus
Procedure: as §2

[13] = system: MRSA; assay: Zone of inhibition on MRSA-seeded agar culture plates; format: cell-based, methicillin-resistant S. aureus; details: 40 μL of ionic liquid applied to MRSA-seeded agar culture plates
Source text: As used herein, CyMIMCI, refers to 1-alkyl-3-methyl-imidazolium chloride ionic liquids, wherein the alkyl group is a straight chain alkyl group having y carbon atoms.

[14] = system: Escherichia Coli; assay: Kill kinetics, planktonic cell cultures; format: cell-based; details: 2000 μM
Source text: (§3) The kill kinetic data is provided in terms of the measured colony forming units per millilitre (CFU/mL) values, and is also provided graphically in FIGS. 9-11.

[15] = system: Methicillin Resistant Staphylococcus Aureus (MRSA); assay: Kill kinetics, planktonic cell cultures; format: cell-based; details: 1379 μM
Source text: as §3

[16] = system: Staphylococcus Epidermidis; assay: Kill kinetics, planktonic cell cultures; format: cell-based; details: 644 μM
Source text: as §3

In the case of `CCCCCCCCCCn1cc[n+](C)c1.[Cl-]` [C10MIMCl, 1-decyl-3-methylimidazolium chloride], the MBC ([1]; 99.9% killing) is reported as 643 µM, the MIC ([1]; 24 h at 37° C.) is reported as 160 µM and the MIC [2] is reported as 321 µM. The MBEC [3] was 19318 µM, the MBEC [4] was 19318 µM and the MBEC [5] was 1207 µM. For the same compound, the MBEC ([6]; E. coli PIII 24 h biofilm, 24 h challenge) was 9659 µM, the “percent weight to volume of ionic liquid that corresponds to the MBEC value” (from here on “percent weight to volume”) ([6]; E. coli PIII biofilm) was “(0.25) % w/v” and the MBEC [7] was 19318 µM. The MBEC ([8]; P. aeruginosa PA01 24 h biofilm, 24 h challenge) was 2415 µM, the “percent weight to volume” value ([8]; P. aeruginosa PA01 biofilm) was “(0.063) % w/v” and the MBEC [9] was 9659 µM. The MBEC [10] was 2415 µM, the MBEC ([11]; S. epidermidis ATCC 35984 24 h biofilm, 24 h challenge) was 4829 µM and the “percent weight to volume” value ([11]; S. epidermidis ATCC 35984 biofilm) was “(0.125) % w/v”. The MBEC ([12]; MRSA 24 h biofilm, 24 h challenge) was 4829 µM, the “percent weight to volume” value ([12]; MRSA biofilm) was “(0.125) % w/v” and the “Zone Of Inhibition Radius” value [13] was 17 mm. The “colony forming units per millilitre” value ([14]; 0 Minutes) was 6.25 × 10^7 CFU/mL, the “colony forming units per millilitre” value ([14]; 5 Minutes) was 3.33 × 10^2 CFU/mL and the “colony forming units per millilitre” value ([14]; 10 Minutes) was 0.00 CFU/mL. The “colony forming units per millilitre” value ([14]; 20 Minutes) was 0.00 CFU/mL, the “colony forming units per millilitre” value ([14]; 30 Minutes) was 0.00 CFU/mL and the “colony forming units per millilitre” value ([14]; 45 Minutes) was 0.00 CFU/mL. For the same compound, the “colony forming units per millilitre” value ([15]; 0 Minutes) was 1.10 × 10^8 CFU/mL, the “colony forming units per millilitre” value ([15]; 5 Minutes) was 3.67 × 10^7 CFU/mL and the “colony forming units per millilitre” value ([15]; 10 Minutes) was 5.00 × 10^6 CFU/mL. The “colony forming units per millilitre” value ([15]; 20 Minutes) was 5.75 × 10^4 CFU/mL, the “colony forming units per millilitre” value ([15]; 30 Minutes) was 6.67 × 10^2 CFU/mL and the “colony forming units per millilitre” value ([15]; 45 Minutes) was 8.33 × 10^1 CFU/mL. The “colony forming units per millilitre” value ([16]; 0 Minutes) was 8.96 × 10^7 CFU/mL, the “colony forming units per millilitre” value ([16]; 5 Minutes) was 8.58 × 10^5 CFU/mL and the “colony forming units per millilitre” value ([16]; 10 Minutes) was 6.92 × 10^4 CFU/mL. For the same compound, the “colony forming units per millilitre” value ([16]; 20 Minutes) was 1.06 × 10^4 CFU/mL, the “colony forming units per millilitre” value ([16]; 30 Minutes) was 2.42 × 10^3 CFU/mL and the “colony forming units per millilitre” value ([16]; 45 Minutes) was 9.17 × 10^2 CFU/mL.
